Where a name gives a salt, the structure may show the parent alone. Read-outs that look alike come from different tables or passages of the source.
What was measured:
[1] = target: T1, And-1 protein fused to a luciferase reporter gene (Homo sapiens, UniProt O75717); assay: quantitative HTS (qHTS) of LOPAC library in HEK293T-And-1-Luc cells (luciferase read-out of And-1 level); assay type: cell-based; conditions: HTS assay
T1 sequence (O75717 1-1129): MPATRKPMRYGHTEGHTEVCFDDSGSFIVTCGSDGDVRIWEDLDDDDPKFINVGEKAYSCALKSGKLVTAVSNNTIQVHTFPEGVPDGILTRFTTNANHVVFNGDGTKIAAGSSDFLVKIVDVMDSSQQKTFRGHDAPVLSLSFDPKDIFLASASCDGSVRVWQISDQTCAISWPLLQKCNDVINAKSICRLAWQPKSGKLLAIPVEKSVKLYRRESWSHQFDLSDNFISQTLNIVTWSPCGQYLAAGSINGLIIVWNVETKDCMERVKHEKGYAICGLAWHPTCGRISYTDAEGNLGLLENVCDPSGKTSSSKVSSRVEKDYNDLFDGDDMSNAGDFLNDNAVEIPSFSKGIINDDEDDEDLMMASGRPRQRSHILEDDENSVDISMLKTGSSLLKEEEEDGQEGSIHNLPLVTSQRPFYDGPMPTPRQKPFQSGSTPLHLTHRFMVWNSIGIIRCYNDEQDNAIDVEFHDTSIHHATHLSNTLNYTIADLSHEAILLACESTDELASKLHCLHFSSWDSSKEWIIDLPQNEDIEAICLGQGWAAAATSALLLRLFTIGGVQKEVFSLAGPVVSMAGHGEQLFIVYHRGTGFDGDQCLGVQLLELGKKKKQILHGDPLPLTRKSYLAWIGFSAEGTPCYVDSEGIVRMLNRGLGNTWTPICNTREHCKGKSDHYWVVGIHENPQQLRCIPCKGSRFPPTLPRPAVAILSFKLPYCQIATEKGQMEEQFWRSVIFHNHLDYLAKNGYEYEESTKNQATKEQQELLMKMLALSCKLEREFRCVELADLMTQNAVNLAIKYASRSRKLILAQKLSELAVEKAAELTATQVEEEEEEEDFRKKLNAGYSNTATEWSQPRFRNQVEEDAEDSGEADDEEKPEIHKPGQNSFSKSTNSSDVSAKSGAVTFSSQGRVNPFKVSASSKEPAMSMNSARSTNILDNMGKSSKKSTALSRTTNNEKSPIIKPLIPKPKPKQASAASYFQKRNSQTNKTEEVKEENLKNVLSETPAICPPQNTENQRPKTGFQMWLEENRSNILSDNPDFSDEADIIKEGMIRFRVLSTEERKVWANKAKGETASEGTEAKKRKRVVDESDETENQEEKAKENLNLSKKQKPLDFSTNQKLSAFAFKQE
Description: To identify And-1 specific pharmacologic inhibitors, a high-throughput screening (HTS) assay was established to identify small molecules that can inhibit And-1 by inducing its degradation. For this assay, two stable cell lines, a HEK293T-And-1-Luc cell expressing And-1 protein fused to a luciferase reporter gene, and a HEK293T-Luc cell expressing luciferase only were generated (FIG. 13A). HEK293T-And-1-Luc cells allowed for assessment of And-1 protein levels by measuring luciferase activity in a high throughput manner.

And-1 [2] = target: T2, And-1 (Homo sapiens, UniProt O75717); assay: immunoblot analysis of And-1 expression in IGROV1 cells; assay type: cell-based; design: endogenous in cells; host or cells: IGROV1 CR; conditions: immunoblot, read-out: IC50 for inhibition of And-1 expression
T2 sequence (O75717 1-1129): T1 sequence (O75717 1-1129)
Procedure: The high IC50 of resveratrol compromises its potential clinical application; therefore, resveratrol was used as a lead compound to screen 12 analogs of resveratrol for potent compounds that can inhibit And-1 (FIG. 14). […] To perform immunoblot analyses, cells were first treated with increasing concentrations of the 12 analogs. After treatment, the cells were harvested and then lysed with RIPA buffer protease inhibitor and phosphatase inhibitor cocktail. Protein concentration was determined by the BCA protein assay. Equal amounts of whole cell lysates were separated on sodium dodecyl sulfate polyacrylamide gel electrophoresis (SDS-PAGE) and transferred onto nitrocellulose membranes. Membranes were then incubated in blocking solution (5% non-fat milk in 20 mM TRIS-HCl, 150 mM NaCl, 0.1% Tween-20) (TBST), followed by incubation with the indicated antibodies at 4° C. overnight. The membranes were then washed in TBST and incubated with HRP-conjugated secondary antibodies for 1 hour at room temperature (21° C.±2° C.). Antibody detection was performed with an enhanced chemiluminescence reaction.

SREBP target gene SCD-1 = assay: RT-PCR detection of SCD-1 gene expression in AN3CA cells; assay type: cell-based, human; conditions: 10 μM; for Relative mRNA expression of SCD-1 / activity of reducing SCD-1 gene expression (in words): AN3CA cells; for Relative mRNA expression of SCD-1: 48 h, DMSO = 1
Procedure: • 1. Experimental reagent • 2. The experimental steps are as follows: • 2.1 AN3CA cell recovery and culture (10% serum 1% double antibody in MEM medium); • 2.2 passages (passage at a ratio of 1:2); • 2.3 Place 6 well plates when the cell status is good, 5×10^5Well, culture overnight; • 2.4 adding medicine: diluting the final concentration of the drug with a culture medium to 10 μM, 2 mL/well; • 2.5 adding medicine for 48 h, and then extracting RNA; • 2.5.1 removing the culture medium, adding 0.5 mL/hole Trizol to lyse the cells, repeatedly blowing and beating the cells by a pipette after 5 min, completely lysing the cells, transferring the cells into a 1.5 mL EP tube without RNase, and standing the tube for 5 min; • 2.5.2 adding 200 µl chloroform, shaking rapidly, mixing, standing for 10 min 12000 rpm/15 min; • 2.5.3 carefully taking out the supernatant, transferring the supernatant into an EP tube, adding isopropanol with the same volume, reversing, uniformly mixing, standing for 10 min, and centrifuging at 12000 rpm/10 min; • 2.5.4 removing the supernatant, adding 1 mL of 75% ethanol for washing, centrifuging at 8000 rpm/5 min once, carefully removing the supernatant, standing at room temperature for 10 min to volatilize the ethanol, and dissolving the precipitate with 40 μL of DEPC treated water when the precipitate becomes transparent; • 2.5.5 RNA concentration was measured and DEPC-treated water was diluted to 100 ng/μL • 2.6 reverse transcription: Kit Takara (PrimeScript RT reagent Kit (Perfect Real Time)

And-1 [3] = target: T2, And-1; assay: inhibition of And-1 in OV90 CR cells; assay type: cell-based; design: endogenous in cells; conditions: inhibition of And-1, OV90 CR cells
And-1 [4] = target: T2, And-1; assay: inhibition of And-1 in IGROV1 CR cells; assay type: cell-based; design: endogenous in cells; host or cells: IGROV1 CR; conditions: inhibition of And-1, IGROV1 CR cells
AN3CA cells = assay: cell proliferation assay (MTS) in AN3CA cells; assay type: cell-based, human; conditions: 10 μM, 48 h
Procedure: • 1. The experimental steps are as follows: • 1.1 AN3CA cell recovery and culture (MEM medium, 10% serum, 1% double antibody); • 1.2 Passages (passage at a ratio of 1:2); • 1.3 Place 96-well plate when the cell status is good, 1×10^4 Well, culture overnight; • culture medium with 10% defatted serum • 1.4 Adding medicine: diluting the final concentration of the drug with a culture medium to 10 μM, and treating for 48 h at 100 μL/well; • culture medium with 10% defatted serum • 1.5 Addition of 2 μL MTS/well, care taken to prevent bubble formation, 490 nm data after 1-4 h

[5] = average of 1 and 2, read-out: IC50 (μM) average
[6] = determination 1, read-out: IC50 (μM) 1
[7] = determination 2, read-out: IC50 (μM) 2

## CCN(CC)CCOc1ccc(Nc2ncc3cc(-c4c(Cl)cccc4Cl)c(=O)n(C)c3n2)cc1 [PD-166285 hydrate]
[1]; [5]
  DC50: 3.03 µM
[1]; [6]
  DC50: 3.33 µM
[1]; [7]
  DC50: 2.73 µM

## Oc1ccc(C=Cc2cc(O)cc(O)c2)cc1 [Resveratrol]
[1]; [5]
  DC50: 18.9 µM
[1]; [6]
  DC50: 14.9 µM
[1]; [7]
  DC50: 22.9 µM
And-1 [2]
  DC50: 16.7 µM

## c1ccc2c(c1)[I+]c1ccccc1-2 [Diphenyleneiodonium chloride]
[1]; [5]
  IC50: 0.43 µM
[1]; [6]
  IC50: 0.84 µM
[1]; [7]
  IC50: 0.03 µM

## Nc1ccn([C@@H]2O[C@H](CO)[C@@H](O)C2(F)F)c(=O)n1 [Gemcitabine hydrochloride]
[1]; [6]
  IC50: 0.02 µM
[1]; determination 2
  IC50 (μM) 2: inactive

## OB1OCc2cc(/C=C/c3ccc(C(F)(F)F)cc3)ccc21 [VII, (E)-5-(4-(trifluoromethyl)styryl)benzo[c][1,2]oxaborol-1(3H)-ol]
SREBP target gene SCD-1
  Relative mRNA expression of SCD-1: 1.07

## O=C1C(SCCO)=C(SCCO)C(=O)c2ccccc21 [NSC 95397]
[1]; [5]
  IC50: 9.42 µM
[1]; [6]
  IC50: 11.2 µM
[1]; [7]
  IC50: 7.68 µM

## CC[n+]1c(/C=C/C=C2/N(C)c3ccccc3C2(C)C)sc2ccccc21 [AC-93253 iodide]
[1]; [5]
  IC50: 0.76 µM
[1]; [6]
  IC50: 1.09 µM
[1]; [7]
  IC50: 0.44 µM

## OB1OCc2cc(/C=C/c3ccccc3C(F)(F)F)ccc21 [VI, (E)-5-(2-(trifluoromethyl)styryl)benzo[c][1,2]oxaborol-1(3H)-ol]
SREBP target gene SCD-1
  Relative mRNA expression of SCD-1: 1.03

## OB1OCc2cc(/C=C/c3ccccc3)ccc21 [XIII, (E)-5-styrylbenzo[c][1,2]oxaborol-1(3H)-ol]
SREBP target gene SCD-1
  Relative mRNA expression of SCD-1: 0.71
And-1 [3]
  IC50: 45.6 µM
And-1 [4]
  IC50: 41 µM

## OB1OCc2cc(/C=C/c3cc(C(F)(F)F)cc(C(F)(F)F)c3)ccc21 [IV, (E)-5-(3,5-bis(trifluoromethyl)styryl)benzo[c][1,2]oxaborol-1(3H)-ol]
SREBP target gene SCD-1
  activity of reducing SCD-1 gene expression (in words): better than those of BF-175
  Relative mRNA expression of SCD-1: 0.42
AN3CA cells
  inhibition of AN3CA cell proliferation (in words): different degrees of inhibition
And-1 [3]
  IC50: 57.9 µM
And-1 [4]
  IC50: 37.6 µM

## CC[C@@]1(O)C(=O)OCc2c1cc1n(c2=O)Cc2cc3c(CN(C)C)c(O)ccc3nc2-1 [Topotecan hydrochloride hydrate]
[1]; [6]
  DC50: 0.61 µM
[1]; determination 2
  IC50 (μM) 2: inactive

## C/C=C(/C)C(=O)O[C@H]1C(C)=C2[C@H]([C@@H]1OC(=O)CCCCCCC)[C@@](C)(OC(C)=O)C[C@H](OC(=O)CCC)[C@@]1(O)[C@H]2OC(=O)[C@@]1(C)O [Thapsigargin]
[1]; [5]
  IC50: 6.95 µM
[1]; [6]
  IC50: 13.3 µM
[1]; [7]
  IC50: 0.63 µM

## C=CCc1cccc(/C=N/NC(=O)CN2CCN(Cc3ccccc3)CC2)c1O [PAC-1]
[1]; [5]
  IC50: 21.3 µM
[1]; [6]
  IC50: 18.8 µM
[1]; [7]
  IC50: 23.8 µM

## CC[C@@]1(O)C(=O)OCc2c1cc1n(c2=O)Cc2cc3ccccc3nc2-1 [(S)-(+)-Camptothecin]
[1]; [6]
  IC50: 0.73 µM
[1]; determination 2
  IC50 (μM) 2: inactive

## OB1OCc2cc(/C=C/c3cc(F)cc(C(F)(F)F)c3)ccc21 [V]
SREBP target gene SCD-1
  Relative mRNA expression of SCD-1: 0.72

## OB1OCc2cc(/C=C/c3cccc(F)c3)ccc21 [IX, (E)-5-(3-fluorostyryl)benzo[c][1,2]oxaborol-1(3H)-ol]
SREBP target gene SCD-1
  Relative mRNA expression of SCD-1: 0.72

## COc1cccc(/C=C/c2ccc3c(c2)COB3O)c1 [XII, (E)-5-(3-methoxystyryl)benzo[c][1,2]oxaborol-1(3H)-ol]
SREBP target gene SCD-1
  Relative mRNA expression of SCD-1: 0.62
And-1 [3]
  IC50: 37.4 µM
And-1 [4]
  IC50: 34.1 µM

## COc1cc2c(cc1O)CC[C@@H]1[C@@H]2CC[C@]2(C)[C@@H](O)CC[C@@H]12 [2-methoxyestradiol]
[1]; [6]
  IC50: 1.67 µM
[1]; determination 2
  IC50 (μM) 2: inactive

## Cc1cccc(/C=C/c2ccc3c(c2)COB3O)c1 [XI, (E)-5-(3-methylstyryl)benzo[c][1,2]oxaborol-1(3H)-ol]
And-1 [3]
  IC50: 34.3 µM
And-1 [4]
  IC50: 32.9 µM

## OB1OCc2cc(Cl)ccc21 [travaborole, reference compound]
SREBP target gene SCD-1
  activity of reducing SCD-1 gene expression (in words): do not have the activity of reducing the expression of SCD-1 gene
  Relative mRNA expression of SCD-1: 1.08

## COCCOC(=O)C1=C(C)NC(C)=C(C(=O)OC/C=C/c2ccccc2)C1c1cccc([N+](=O)[O-])c1 (centres unmarked) [Cilnidipine]
[1]; [5]
  IC50: 21.1 µM
[1]; [6]
  IC50: 22.9 µM
[1]; [7]
  IC50: 19.3 µM

## CNc1ccc2oc(C[C@H]3O[C@@]4(CC[C@H]3C)O[C@H]([C@H](C)C(=O)c3ccc[nH]3)[C@H](C)C[C@H]4C)nc2c1C(=O)O [Calcimycin]
[1]; [5]
  IC50: 8.32 µM
[1]; [6]
  IC50: 6.1 µM
[1]; [7]
  IC50: 10.5 µM

## OB1OCc2cc(/C=C/c3cccc(Cl)c3)ccc21 [X, (E)-5-(3-chlorostyryl)benzo[c][1,2]oxaborol-1(3H)-ol]
SREBP target gene SCD-1
  Relative mRNA expression of SCD-1: 0.56
SREBP target gene SCD-1; human endometrial cancer AN3CA cells
  inhibitory effect on Srebp: high inhibitory effect
And-1 [3]
  IC50: 20.6 µM
And-1 [4]
  IC50: 19.2 µM

— patent US12258360B2, “Compositions and methods for treatment of anticancer-drug resistant cancers” (THE GEORGE WASHINGTON UNIVERSITY, priority 2020, dated 2025)
